From patent publication US6306860A, “2,5-pyridinedicarboxylic acid derivatives” (Dong Wha Pharm. Inc. Co., Ltd., priority 1998, dated 2001)
Counter-ions that a name gives are not always drawn.

Tests used:
[1] = target: T1, HIV reverse transcriptase (Human immunodeficiency virus type 1 group M subtype B, UniProt P04585); assay: In vitro inhibition test against HIV reverse transcriptase; format: biochemical; details: read-out: Inhibitory activity of HIV-RT (%); for inhibition at 0.1 µg/mL: 0.1 μg/ml; for inhibition at 1 µg/mL: 1 μg/ml
T1 construct: purchased Boehringer Mannheim
Protocol: Experiment 2: The in vitro Inhibition Test Against HIV Reverse Transcriptase
The inhibitory activity in vitro was measured using a non-radioactive reverse transcriptase assay Kit (Boehringer Mannheim).
At first, 20 μl(40 ng) of HIV-RT was added to the wells, coated with streptavidin and with the addition of 20 μl reaction mixture containing template/primer hybrid poly(A)/oligo(dT)15 and DIG-(digoxigenin)-dUTP, biotin-dUTP and TTP, 20 μl of test compound was added and reacted at 37° C. for 1 hour. The control without test compound was used for the comparison of related activity. Since DNA containing nucleotide labeled with digoxigenin and biotine was prepared by the action of HIV-RT, it was combined with streptavidin coated at the bottom of the wells. After the reaction was completed, remaining impurities were removed by washing each well with 250 μl buffer solution (pH 7.0) for 30 seconds 5 times and with the addition of 200 μl anti-DIG-POD antibody, the mixture was reacted at 37° C. for 1 hour. For the removal of remaining impurities again, the reacting solution was washed with a buffer solution and with the addition of 200 μl ABTS™ each, a substrate of POD(peroxidase), the solution was reacted at room temperature for 30 minutes. The absorbance was read by ELISA reader at 405 nm for the assay of reverse transcriptase activity and its inhibition activity.

HBV polymerase = target: T2, HBV polymerase (Hepatitis B virus genotype D subtype ayw, UniProt P03156); assay: Inhibitory activities against HBV polymerase (reverse transcriptase activity) in vitro; format: biochemical; details: read-out: Inhibitory activity of HBV-RT (%); for inhibition at 0.01 µg/mL: 0.01 μg/ml; for inhibition at 0.1 µg/mL: 0.1 μg/ml; for inhibition at 1 µg/mL: 1 μg/ml
T2 construct: made in house; host or cells: E. coli
From the text: Experiment 1:Inhibitory Activities Against HBV Polymerase in vitro
Recently, the inventors of the present invention have produced a recombinant HBV polymerase that is expressed from E.coli transformant, measured its enzyme activity and filed patent applications threrof [Korean Pat. Appl. Nos. 94-3918 and 96-33998].
The inventors have also established a method of measuring the reverse transcriptase activity of HBV polymerase in vitro. The fundamental principle is the same as the ELISA method, and after reacting the substrate with biotin- and DIG-modified nucleotide, a method of recognizing the polymerized substrate as anti-DIG antibody with peroxidase was used.
20 μl of HBV polymerase, 20 μl of reaction mixture and 20 μl of test compound was mixed and reacted at 14° C.~30° C. for 18~24 hours. Then, the inhibitory effect of the test compound against reverse transcriptase activity in the HBV polymerase was examined, compared with the results of control tests without the test compound.

T2 sequence (P03156 whole entry): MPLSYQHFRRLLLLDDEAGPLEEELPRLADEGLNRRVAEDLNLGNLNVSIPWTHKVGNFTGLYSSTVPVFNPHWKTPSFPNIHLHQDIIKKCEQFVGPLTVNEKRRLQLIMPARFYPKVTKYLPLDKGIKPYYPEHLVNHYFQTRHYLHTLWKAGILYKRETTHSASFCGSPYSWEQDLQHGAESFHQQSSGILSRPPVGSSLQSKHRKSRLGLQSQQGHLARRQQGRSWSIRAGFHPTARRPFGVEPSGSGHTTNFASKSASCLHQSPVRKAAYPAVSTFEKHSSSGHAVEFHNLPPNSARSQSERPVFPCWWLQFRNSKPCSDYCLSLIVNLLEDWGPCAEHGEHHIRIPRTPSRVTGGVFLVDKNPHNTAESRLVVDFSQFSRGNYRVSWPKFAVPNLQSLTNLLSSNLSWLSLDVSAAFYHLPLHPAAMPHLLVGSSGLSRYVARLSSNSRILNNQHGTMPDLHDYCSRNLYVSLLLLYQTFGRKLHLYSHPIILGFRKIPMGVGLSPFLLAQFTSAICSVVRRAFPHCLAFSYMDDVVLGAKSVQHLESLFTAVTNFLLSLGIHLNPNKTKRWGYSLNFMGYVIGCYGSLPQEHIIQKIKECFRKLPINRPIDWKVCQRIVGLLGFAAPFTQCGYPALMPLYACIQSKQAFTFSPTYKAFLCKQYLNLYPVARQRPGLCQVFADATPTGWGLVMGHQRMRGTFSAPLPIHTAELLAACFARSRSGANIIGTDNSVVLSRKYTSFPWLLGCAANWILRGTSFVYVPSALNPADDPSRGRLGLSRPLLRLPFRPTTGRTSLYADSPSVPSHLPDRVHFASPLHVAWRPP

## CC(C)CNC(=O)c1ccc(C(=O)N2CCN(CCO)CC2)nc1 [Exam. 88, 6-[1-(2-hydroxyethyl)piperazin-4-yl-carbonyl]-N-isobutylnicotinamide.HCl]
[1]
  inhibition at 0.1 µg/mL: 50%
  inhibition at 1 µg/mL: 70%
HBV polymerase
  inhibition at 0.01 µg/mL: 55%
  inhibition at 0.1 µg/mL: 67%
  inhibition at 1 µg/mL: 81%

## COC(CN(C)C(=O)c1ccc(C(=O)N2CCN(c3ncccc3NC(C)C)CC2)nc1)OC [Exam. 50, 5-[N-(2,2-dimethoxyethyl)-N-methylcarbamoyl]-2-[1-[3-(isopropylamino)-2-pyridyl]piperazin-4-yl-carbonyl]pyridine.HCl]
[1]
  inhibition at 0.1 µg/mL: 40%
  inhibition at 1 µg/mL: 55%
HBV polymerase
  inhibition at 0.01 µg/mL: 15%
  inhibition at 0.1 µg/mL: 51%
  inhibition at 1 µg/mL: 60%

## COCCNC(=O)c1ccc(C(=O)N2CCN(c3ncccc3NCC(C)C)CC2)nc1 [Exam. 41, 2-[1-[3-(isobutylamino)-2-pyridyl]piperazin-4-yl-carbonyl]-5-[N-(2-methoxyethyl)carbamoyl]-pyridine]
[1]
  inhibition at 0.1 µg/mL: 34%
  inhibition at 1 µg/mL: 55%
HBV polymerase
  inhibition at 0.01 µg/mL: 52%
  inhibition at 0.1 µg/mL: 70%
  inhibition at 1 µg/mL: 85%

## COc1ccc(NC(=O)c2ccc(C(=O)N3CCN(c4ncccc4NC(C)C)CC3)nc2)cn1 [Exam. 71, 6-[1-[3-(isopropylamino)-2-pyridyl]piperazin-4-yl-carbonyl]-N-(6-methoxy-3-pyridyl)nicotinamide]
[1]
  inhibition at 0.1 µg/mL: 48%
  inhibition at 1 µg/mL: 74%
HBV polymerase
  inhibition at 0.01 µg/mL: 59%
  inhibition at 0.1 µg/mL: 70%
  inhibition at 1 µg/mL: 83%

## CCNC(=O)c1ccc(C(=O)N2CCN(CCO)CC2)nc1 [Exam. 89, N-ethyl-6-[1-(2-hydroxyethyl)piperazin-4-yl-carbonyl]nicotinamide.HCl]
[1]
  inhibition at 0.1 µg/mL: 35%
  inhibition at 1 µg/mL: 62%
HBV polymerase
  inhibition at 0.01 µg/mL: 35%
  inhibition at 0.1 µg/mL: 50%
  inhibition at 1 µg/mL: 68%

## CC(C)Nc1cccnc1N1CCN(C(=O)c2ccc(C(=O)NC3CCOC3=O)cn2)CC1 (stereo not drawn) [Exam. 55, 2-[1-[3-(Isopropylamino)-2-pyridyl]piperazin-4-yl-carbonyl]-5-[N-(tetrahydro-2-fuanon-3-yl)carbamoyl]pyridine]
[1]
  inhibition at 0.1 µg/mL: 31%
  inhibition at 1 µg/mL: 62%
HBV polymerase
  inhibition at 0.01 µg/mL: 55%
  inhibition at 0.1 µg/mL: 69%
  inhibition at 1 µg/mL: 79%

## CC(C)Nc1cccnc1N1CCN(C(=O)c2ccc(C(=O)Nc3ccccn3)cn2)CC1 [Exam. 70, 6-[1-[3-(isopropylamino)-2-pyridyl]piperazin-4-yl-carbonyl]-N-(2-pyridyl)nicotinamide]
[1]
  inhibition at 0.1 µg/mL: 55%
  inhibition at 1 µg/mL: 74%
HBV polymerase
  inhibition at 0.01 µg/mL: 26%
  inhibition at 0.1 µg/mL: 55%
  inhibition at 1 µg/mL: 74%

## COCCNC(=O)c1ccc(C(=O)N2CCN(CCO)CC2)nc1 [Exam. 98, 6-[1-(2-hydroxyethyl)piperazin-4-yl-carbonyl]-N-(2-methoxyethyl)nicotinamide.HCl]
[1]
  inhibition at 0.1 µg/mL: 61%
  inhibition at 1 µg/mL: 76%
HBV polymerase
  inhibition at 0.01 µg/mL: 57%
  inhibition at 0.1 µg/mL: 70%
  inhibition at 1 µg/mL: 85%

## CC(C)Nc1cccnc1N1CCN(C(=O)c2ccc(C(=O)NC(C)(C)C)cn2)CC1 [Exam. 28, 5-[N-(1,1-dimethylethyl)carbamoyl]-2-[1-[3-(isopropylamino)-2-pyridyl]piperazin-4-yl-carbonyl]pyridine]
[1]
  inhibition at 0.1 µg/mL: 45%
  inhibition at 1 µg/mL: 55%
HBV polymerase
  inhibition at 0.01 µg/mL: 61%
  inhibition at 0.1 µg/mL: 72%
  inhibition at 1 µg/mL: 88%

## CC(C)CNc1cccnc1N1CCN(C(=O)c2ccc(C(=O)NC(C)C)cn2)CC1 [Exam. 26, 2-[1-[3-(isobutylamino)-2-pyridyl]piperazin-4-yl-carbonyl]-5-(N-isopropylcarbamoyl)pyridine]
[1]
  inhibition at 0.1 µg/mL: 45%
  inhibition at 1 µg/mL: 60%
HBV polymerase
  inhibition at 0.01 µg/mL: 58%
  inhibition at 0.1 µg/mL: 66%
  inhibition at 1 µg/mL: 90%

## COCCCNC(=O)c1ccc(C(=O)N2CCN(CCO)CC2)nc1 [Exam. 99, 6-[1-(2-hydroxyethyl)piperazin-4-yl-carbonyl]-N-(3-methoxypropyl)nicotinamide]
[1]
  inhibition at 0.1 µg/mL: 65%
  inhibition at 1 µg/mL: 75%
HBV polymerase
  inhibition at 0.01 µg/mL: 15%
  inhibition at 0.1 µg/mL: 60%
  inhibition at 1 µg/mL: 68%

## CC(C)Nc1cccnc1N1CCN(C(=O)c2ccc(C(=O)NC3CC3)cn2)CC1 [Exam. 35, 5-(N-cyclopropylcarbamoyl)-2-[1-[3-(isopropylamino)-2-pyridyl]piperazin-4-yl-carbonyl]pyridine]
[1]
  inhibition at 0.1 µg/mL: 30%
  inhibition at 1 µg/mL: 68%
HBV polymerase
  inhibition at 0.01 µg/mL: 5%
  inhibition at 0.1 µg/mL: 51%
  inhibition at 1 µg/mL: 62%

## COCCN(CCOC)C(=O)c1ccc(C(=O)N2CCN(CCO)CC2)nc1 [Exam. 100, N,N-bis(2-methoxyethyl)-6-[1-(2-hydroxyethyl)piperazin-4-yl-carbonyl]nicotinamide.HCl]
[1]
  inhibition at 0.1 µg/mL: 40%
  inhibition at 1 µg/mL: 64%
HBV polymerase
  inhibition at 0.01 µg/mL: 20%
  inhibition at 0.1 µg/mL: 49%
  inhibition at 1 µg/mL: 77%

## CC(C)Nc1cccnc1N1CCN(C(=O)c2ccc(C(=O)NCCc3ccccn3)cn2)CC1 [Exam. 82, 6-[1-[3-(isopropylamino)-2-pyridyl]piperazin-4-yl-carbonyl]-N-[2-(2-pyridyl)ethyl]nicotinamide]
[1]
  inhibition at 0.1 µg/mL: 65%
  inhibition at 1 µg/mL: 80%
HBV polymerase
  inhibition at 0.01 µg/mL: 24%
  inhibition at 0.1 µg/mL: 53%
  inhibition at 1 µg/mL: 67%

## CC(C)Nc1cccnc1N1CCN(C(=O)c2ccc(C(=O)Nc3cnccn3)cn2)CC1 [Exam. 72, 6-[1-[3-(isopropylamino)-2-pyridyl]piperazin-4-yl-carbonyl]-N-(pyrazine-2-yl)nicotinamide]
[1]
  inhibition at 0.1 µg/mL: 66%
  inhibition at 1 µg/mL: 83%
HBV polymerase
  inhibition at 0.01 µg/mL: 16%
  inhibition at 0.1 µg/mL: 53%
  inhibition at 1 µg/mL: 64%

## CCNc1cccnc1N1CCN(C(=O)c2ccc(C(=O)NCCN3CCOCC3)cn2)CC1 [Exam. 60, 2-[1-[3-(ethylamino)-2-pyridyl]piperazin-4-yl-carbonyl]-5-[N-[2-(morpholin4-yl)ethyl]carbamoyl]pyridine.HCl]
[1]
  inhibition at 0.1 µg/mL: 55%
  inhibition at 1 µg/mL: 73%
HBV polymerase
  inhibition at 0.01 µg/mL: 30%
  inhibition at 0.1 µg/mL: 52%
  inhibition at 1 µg/mL: 66%

## CC(C)Nc1cccnc1N1CCN(C(=O)c2ccc(C(=O)NC3CCCC3)cn2)CC1 [Exam. 37, 5-(N-cyclopentylcarbamoyl)-2-[1-[3-(isopropylamino)-2-pyridyl]piperazin-4-yl-carbonyl]pyridine]
[1]
  inhibition at 0.1 µg/mL: 25%
  inhibition at 1 µg/mL: 51%
HBV polymerase
  inhibition at 0.01 µg/mL: 39%
  inhibition at 0.1 µg/mL: 65%
  inhibition at 1 µg/mL: 75%

## Cc1cc(NC(=O)c2ccc(C(=O)N3CCN(c4ncccc4NC(C)C)CC3)nc2)no1 [Exam. 67, 6-[1-[3-(isopropylamino)-2-pyridyl]piperazin-4-yl-carbonyl]-N-(5-methylisoxazol-3-yl)nicotinamide]
[1]
  inhibition at 0.1 µg/mL: 30%
  inhibition at 1 µg/mL: 58%
HBV polymerase
  inhibition at 0.01 µg/mL: 25%
  inhibition at 0.1 µg/mL: 50%
  inhibition at 1 µg/mL: 72%

## CC(C)Nc1cccnc1N1CCN(C(=O)c2ccc(C(=O)NCc3ccncc3)cn2)CC1 [Exam. 77, 6-[1-[3-(isopropylamino)-2-pyridyl]piperazin-4-yl-carbonyl]-N-(4-pyridylmethyl)nicotinamide]
[1]
  inhibition at 0.1 µg/mL: 59%
  inhibition at 1 µg/mL: 79%
HBV polymerase
  inhibition at 0.01 µg/mL: 39%
  inhibition at 0.1 µg/mL: 65%
  inhibition at 1 µg/mL: 79%

## CC(C)CNC(=O)c1ccc(C(=O)N2CCN(c3ncccc3NC(C)C)CC2)nc1 [Exam. 30, 2-[1-[3-(isopropylamino)-2-pyridyl]piperazin-4-yl-carbonyl]-5-[N-(2-methylpropyl)carbamoyl]pyridine]
[1]
  inhibition at 0.1 µg/mL: 32%
  inhibition at 1 µg/mL: 58%
HBV polymerase
  inhibition at 0.01 µg/mL: 61%
  inhibition at 0.1 µg/mL: 65%
  inhibition at 1 µg/mL: 83%

## CC(C)Nc1cccnc1N1CCN(C(=O)c2ccc(C(=O)NCC3CCCO3)cn2)CC1 (stereo not drawn) [Exam. 53, 2-[1-[3-(isopropylamino)-2-pyridyl]piperazin-4-yl-carbonyl]-5-[N-(tetrahydrofuran-2-yl-methyl)carbamoyl]pyridine]
[1]
  inhibition at 0.1 µg/mL: 59%
  inhibition at 1 µg/mL: 78%
HBV polymerase
  inhibition at 0.01 µg/mL: 52%
  inhibition at 0.1 µg/mL: 60%
  inhibition at 1 µg/mL: 74%
